Consider 91 molecules from a melting point compilation (Tetko et al.; mined from patent text by program, amines drawn as free bases though some values may be those of a salt).

Structures are written as SMILES.

On to `COc1ccc(S(=O)(=O)Nc2ccc(-c3ccccc3)cc2)cc1OC`, for which the melting point lay in the range of 171 to 173 °C.

The molecule `O=C1CCc2c(ccc3cc(O)ccc23)O1` yielded a melting point of 189 to 199 °C.

`Cc1ccc(-c2ccc3c(c2)C=C(C(=O)Nc2ccc(Cc4ncccc4O)cc2)CCO3)cc1` showed a melting point of 285 to 288 °C. The same measure for `CNC(=O)N1N=C(c2ccc([N+](=O)[O-])c(C)c2)c2cc3c(cc2C=C1C)OCO3`: 246 to 248 °C; for `Cc1ccc(C(=O)Nc2c(NC(=O)CN3CCCCC3)ccc3c2C(=O)c2ccccc2C3=O)cc1`: 213 to 214 °C; for `CCc1[nH]nc(C(=O)NC2CCCC2)c1NC(=O)c1cnccn1`: 175 to 176 °C. As for `COc1cc2c(cc1OC(C)C)-c1c(-c3cccs3)c3c(n1CC2)C(=O)N(C(C)C)CCNC3`, the figure is 242 to 243 °C; as for `CCn1c(=O)c(C#N)c(O)c2ccc(C)nc21`, 274 to 276 °C.

The molecule `O=C(O)CCCCN1CCN2c3ccccc3Cc3ccccc3C2C1` (stereo unspecified) showed a melting point of 218 to 219 °C.

Molecule `CCOc1ccc(-c2nc(-c3cc(C(=O)O)ccn3)cs2)cc1OCC` registered a melting point of 236 to 237 °C.

The molecule `O=Cc1ccc(OCCCC(=O)O)c([N+](=O)[O-])c1` had a melting point of 136 to 139 °C. The molecule `CCOC(=O)C(=Cc1cc(C(=O)OCC)c(=O)n2ccccc12)C(=O)OCC` returned a melting point of 149 to 151 °C. As for `N#Cc1cccc2c1CC(=NN)c1ccc(F)cc1S2`, the figure is 178 to 179 °C; as for `COC(=O)c1ccc(-c2ncccc2S(=O)(=O)Nc2ncc(C)nc2OC)cc1`, 144 to 146 °C; as for `CSCc1nnc2n1-c1sc(Cl)cc1C(c1ccccc1Cl)=NC2`, 200 to 202 °C. As for `CN(SC(C)(C)C)C(=O)Nc1ccc(Cl)c(Cl)c1`, the figure is 127 °C; as for `Cc1cc2c(c3occ(-c4ccc(C(C)C)cc4)c13)CCCC2`, 97 to 98 °C. In turn, `O=S(=O)(NCc1ccc(Cl)cc1)c1c[nH]cn1` displayed a melting point of 196 to 198 °C. On to `CC(C)Cn1nccc1-c1nn(-c2cccc(C(F)(F)F)c2)ccc1=O`, for which the melting point fell in the range of 120 to 121 °C. As for `O=C(O)c1ccc(-c2nc3cc(Cl)c(Cl)cc3[nH]2)cc1`, the figure is > 250 °C. As for `NC12CC3CC(C1)CC(O)(C3)C2`, the figure is 260 to 264 °C; as for `Cc1nnc(-c2ccc3occ(-c4ccc(OS(=O)(=O)C(F)(F)F)cc4)c3c2)o1`, 136 to 137 °C; as for `COC(=O)C(=Cc1cc(OC)cc(OC)c1)c1ccc(Oc2ccc(CC3SC(=O)NC3=O)cc2)cc1` (stereo unspecified), 65 to 66 °C.

`CNC(=O)N(OC)c1ccc(Oc2ccc3sncc3c2)c(Cl)c1`: the melting point is 128 °C. The same measure for `N#Cc1cccc(-c2ccc(O)c(C=O)c2)c1`: 139 to 140 °C; for `C=CCSc1ccc(-c2ccccc2)nn1`: 96 to 98 °C; for `Cc1ncc(CN2CCc3cc(-c4ccc(Cl)cc4)ccc3C2)c(N)n1`: 205 to 208 °C. The same measure for `COc1cc(OC)cc(N2CCN(C(=O)Nc3cc(C(C)OC(=O)CCC(=O)O)c(C)nc3OC)CC2)c1` (stereo unspecified): 158 to 160 °C. The same measure for `CN1CCc2cccc3c4c(n(c23)CC1)CCC4`: 128 to 130 °C; for `O=c1cc(CCO)c2ccccc2[nH]1`: 213 to 215 °C; for `CCOC(=O)c1cnc2c(F)c(Br)c(F)cc2c1O`: 285 °C.

Turning to `Cc1nc(NC(=O)c2cnn3c(C(F)(F)F)cc(-c4ccc(Cl)c(Cl)c4)nc23)sc1S(=O)(=O)NC(C)(C)CO`, the melting point was 265 °C. As for `CC1C(c2ccccc2)OC(=O)N1C(=O)CC1c2ccccc2CCc2ccccc21` (stereo unspecified), the figure is 130 to 131 °C.

The molecule `CC(=O)N=c1sc(C)cn1CC(O)c1cccs1` (stereo unspecified) yielded a melting point of 106 to 107 °C. As for `CC(=O)Oc1cc2oc(=O)ccc2cc1C`, the figure is 147 °C. `CCn1c(=O)c2c(nc(/C=C/c3ccc(-c4ccccc4)cc3)n2C)n(CC)c1=O` gave a melting point of 200 to 201 °C. The same measure for `O=C1Nc2ccccc2C12COc1cc3c(cc12)N(Cc1ccccn1)CC=N3` (stereo unspecified): 232 to 233 °C; for `O=[N+]([O-])c1ccc(F)cc1Nc1ccc(F)cc1`: 115 to 116 °C.

As to `N#Cc1c(N)c2ccccc2[nH]c1=O`, the melting point is > 250 °C. The same measure for `O=C(NC1(Cc2ccccc2)CCN(Cc2ccccc2)CC1)N1CCCC1`: 126 °C; for `O=C(Nc1ccc(OC(F)(F)F)cc1)NC1CCN(C(=O)c2ccc(Cl)nc2)CC1`: 208 to 209 °C; for `Cc1ncsc1C(=O)Nc1ccc(-n2nc(C(F)(F)F)cc2C2CC2)c(F)c1`: 95 to 97.6 °C. The same measure for `CC(C)[Si](C(C)C)(C(C)C)N1C=C2C=C(Br)OCC3=C2C(=C1)CC3N(C)C` (stereo unspecified): 119 to 121 °C. `COC(=O)c1ccc(CC(C#N)(c2ccccc2Cl)N2CCOCC2)cc1` (stereo unspecified): the melting point fell in the range of 116 to 118 °C. The same measure for `COC(=O)CC(O)CC(=O)C=Cc1ccc(Cl)cc1Cl` (stereo unspecified): 77 to 79 °C; for `CCc1nc(Cl)c2sccc2n1`: 46 to 48 °C. Take `CC(=O)C(=NNc1cccc(Cl)c1)Sc1ccc(Cl)cc1`: the melting point lay within 128 to 131 °C. As for `COCSCCNC(=C[N+](=O)[O-])SC`, the figure is 54 to 58 °C. The same measure for `O=C1c2ccccc2C(=O)N1CC(=O)N1c2ccccc2N(Cc2ccc(NCc3ccccc3)cc2)C(=O)[C@H]2CCC[C@H]21` (relative stereo): 178 to 182 °C; for `CC(C(=O)N(C)C)n1cc(Br)c(-c2ccccc2)n1` (stereo unspecified): 90.5 to 91.5 °C; for `CCOC(=O)CCCC(=NO)c1ccccc1`: 28 to 30 °C. As for `S=C(Nc1cccc(Cl)c1)N1CCCSC1c1ccccc1` (stereo unspecified), the figure is 132 to 135 °C. `O=C(c1ccc(C(F)(F)F)cc1S(=O)c1ccc(Cl)cc1)c1cnoc1C1CC1` (stereo unspecified): the melting point is 151 °C. In turn, `CCC(CC)CCc1nn(C)c2cc(C(=O)OC)ccc12` came in with a melting point of 91 to 93 °C.

Molecule `ClC(Cl)=CCOc1cc(Cl)c(OCCC2COC(c3ccc(Cl)cc3)O2)c(Cl)c1` (stereo unspecified) came in with a melting point of 84.1 °C.

In turn, `COc1cc([N+](=O)[O-])c(F)cc1Cl` returned a melting point of 69 to 70 °C.

With `N#Cc1c(Br)cc(Br)c(CCC(=O)O)c1Br`, the melting point fell in the range of 164 to 166 °C. As for `COc1cc2c(c(-c3cc(F)ccc3F)c1)OC(CN)C2` (stereo unspecified), the figure is 118 to 120 °C; as for `COc1ccc(CCNC(=O)C(F)(F)F)cc1S(=O)(=O)Cl`, 96 to 98 °C. As for `Cc1cc(C(=O)O)ncc1C(c1c(F)ccc(F)c1F)S(=O)(=O)CCC(F)(F)F` (stereo unspecified), the figure is 85 to 87 °C. As for `C=Cc1ccc(NN2C(=O)c3ccccc3C2=O)cc1`, the figure is 174 to 176 °C. `COc1cc(C=CC=C2SC(=O)NC2=O)ccc1OCc1coc(-c2ccccc2)n1` returned a melting point of 230 to 231 °C.

Turning to `CC1(CC(=O)O)OCCc2nc(-c3ccccc3)sc21` (stereo unspecified), the melting point was 143 to 145 °C. The same measure for `CSc1nc(OCC(F)(F)F)c(C#N)c(N2CCc3ccccc3CC2)n1`: 108 to 110 °C. As for `O=c1ccc(Cl)cn1[C@@H]1c2ccccc2OCC[C@H]1O` (relative stereo), the figure is 176 to 178 °C; as for `COc1cc(C(=O)C=Cc2ccc(Br)cc2)ccc1OC1CCCCO1` (stereo unspecified), 142 to 145 °C; as for `CC(C)(CO)NC(=O)CBr`, 107 to 109 °C. The same measure for `COc1ccc(C(C)C)cc1-c1cc(C(=O)OCc2ccccc2)c(OCc2ccccc2)cc1OCc1ccccc1`: 139 to 141 °C; for `CC1(C)COc2cc(Cl)c(Cl)cc2C(O)(c2ccccn2)C1` (stereo unspecified): 128 °C. In turn, `COc1cc(OC)c(F)c(NCc2cnc(SC)nc2NC2CC2)c1F` showed a melting point of 48 to 50 °C. The same measure for `N#Cc1cn(-c2c(Cl)cc(C(F)(F)F)cc2Cl)nc1F`: 120 to 121 °C; for `Cc1cc(-c2ccc(C(F)(F)F)cc2)cc(-c2ccnc(-c3cccc(NS(C)(=O)=O)c3)c2)n1`: 196 °C. The same measure for `CN1Cc2c(-c3nnc(CCl)o3)ncn2-c2ccccc2C1=O`: 221 to 222 °C; for `CCn1c(OC(C)C)n[nH]c1=O`: 69 to 70 °C. For the molecule `O=c1[nH]c2ncc(-c3ccc(-n4cccn4)cc3)nc2n1CCC1CCOCC1`, the melting point fell in the range of 294 to 296 °C. As for `O=C(c1c(F)cccc1F)N1COCN(c2ccc(SC(F)F)cc2F)C1=O`, the figure is 77 to 79 °C; as for `CSc1cnc2ccsc2c1O`, 210 to 212 °C; as for `COC1=C(OC)C(=O)C2=C(CC(CCCCCCCCO)C2)C1=O`, 56 to 58 °C.

`Cc1cccc(-c2nc3ccc(Cl)nn3c2-c2ccnc(N)n2)c1` showed a melting point of 237 to 238 °C. The molecule `CS(=O)(=O)C(C#N)=Cc1ccc2[nH]ccc2c1` yielded a melting point of 184 to 185 °C.

For the molecule `CNC(=O)c1cc2c(Oc3ccc(-n4cccn4)cc3)cncc2s1`, the melting point is 192 to 194 °C. For `O=C1N[C@H](C(=O)NCCCCO[N+](=O)[O-])CS1`, the melting point was 68 to 70 °C. The same measure for `CCOC(=O)C1CCc2c(C)c(O)c(C)c(C)c2O1` (stereo unspecified): 108 to 109 °C; for `O=c1c2cccnc2c(-c2cccc([N+](=O)[O-])c2)nn1Cc1ccncc1`: 167 to 168 °C; for `CNC(=O)Cn1nnnc1S`: 167 to 168 °C.

`CC(=O)SCC(Cc1ccccc1)C(=O)Nc1cc(C)cc(C(=O)O)c1` (stereo unspecified) registered a melting point of 160 to 161 °C. The same measure for `N#Cc1cc(C2=NOC(c3cc(Cl)cc(Cl)c3)(C(F)(F)F)C2)ccc1F` (stereo unspecified): 136 to 139 °C; for `O=C(Nc1ccccc1)Nc1nc(C=C2SC(=O)NC2=O)cs1`: > 300 °C; for `CCCCc1oc2ccccc2c1C(=O)Nc1ccc2c(Br)c(OC(Cc3ccccc3)C(=O)OC)ccc2c1` (stereo unspecified): 136 to 139 °C. The molecule `CC(C)n1cc(C(=O)NCc2ccc(Cl)cc2)c(=O)c2cc(C#CCO)sc21` came in with a melting point of 190 to 196 °C. `O=C(O)c1ccccc1C(=O)c1ccc(Cl)cc1Cl` returned a melting point of 178 to 181 °C.
